Key:
[1] = target: T1, Amine oxidase [flavin-containing] A (Homo sapiens, UniProt P21397); assay: (§1) SSAO Activity Assay: Amine oxidase activity of recombinant hSSAO, hMAO-A, and hMAO-B isoforms are measured using the MAO-Glo assay kit (Promega, V1402). Ten nL test compounds (with DMSO as vehicle, 0.1% v/v for hSSAO, hMAO-A and hMAO-B) were added into assay plates by Echo, and pre-incubated with 5 μL of enzyme for 30 mins at room temperature before the addition of 5 μL of luminogenic substrate. The substrate concentration is 40 μM for human recombinant SSAO, 40 μM for human recombinant MAO-A, and 4 μM for human recombinant MAO-B. The hSSAO and hMAO-A assays were conducted in the MAO-A reaction buffer in the kit, and the MAO-B assay was conducted in the MAO-B reaction buffer. Oxidation of the substrate was conducted for 1 hr, before the addition of detecting reagent according the manufacture's protocol. The IC50 value of the tested compounds was calculated by fitting the dose response curve using a 4-parameter non-linear regression routine.
T1 sequence (P21397 whole entry): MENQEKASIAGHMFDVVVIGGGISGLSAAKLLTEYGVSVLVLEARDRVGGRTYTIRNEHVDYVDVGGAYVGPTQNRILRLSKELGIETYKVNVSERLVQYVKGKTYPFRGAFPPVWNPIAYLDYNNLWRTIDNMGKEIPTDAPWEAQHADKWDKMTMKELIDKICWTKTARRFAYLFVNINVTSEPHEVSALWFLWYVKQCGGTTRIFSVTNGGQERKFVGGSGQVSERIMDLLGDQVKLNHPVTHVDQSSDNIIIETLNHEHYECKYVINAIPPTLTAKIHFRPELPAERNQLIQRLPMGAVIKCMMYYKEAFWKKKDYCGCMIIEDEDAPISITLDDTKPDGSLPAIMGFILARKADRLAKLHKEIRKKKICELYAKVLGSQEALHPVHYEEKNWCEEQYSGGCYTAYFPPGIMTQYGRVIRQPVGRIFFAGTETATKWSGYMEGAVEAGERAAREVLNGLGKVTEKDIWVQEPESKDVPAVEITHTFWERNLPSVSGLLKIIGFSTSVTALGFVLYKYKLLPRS

[2] = target: T2, Amine oxidase [flavin-containing] B (Homo sapiens, UniProt P27338); assay: as §1
T2 sequence (P27338 whole entry): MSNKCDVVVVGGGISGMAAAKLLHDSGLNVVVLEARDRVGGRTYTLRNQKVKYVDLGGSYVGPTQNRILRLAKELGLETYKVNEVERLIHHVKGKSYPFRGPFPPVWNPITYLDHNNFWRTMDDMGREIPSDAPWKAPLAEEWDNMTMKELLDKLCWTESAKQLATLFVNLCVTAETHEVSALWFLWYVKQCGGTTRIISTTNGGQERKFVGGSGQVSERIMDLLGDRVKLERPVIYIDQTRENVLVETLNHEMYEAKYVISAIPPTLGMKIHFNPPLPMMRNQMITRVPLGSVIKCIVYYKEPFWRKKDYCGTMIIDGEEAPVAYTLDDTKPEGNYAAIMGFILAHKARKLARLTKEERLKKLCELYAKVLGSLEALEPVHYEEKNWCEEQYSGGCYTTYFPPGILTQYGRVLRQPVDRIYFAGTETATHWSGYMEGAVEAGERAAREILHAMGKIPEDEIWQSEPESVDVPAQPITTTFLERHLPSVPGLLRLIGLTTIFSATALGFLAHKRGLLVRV

| IC50 [1] | IC50 [2] | Compound |
| --- | --- | --- |
| > 30 µM | < 10 µM | C[C@@H](CS(=O)(=O)c1ccc(OC/C(=C/F)CN)cc1)N1CCCCC1=O |
| > 30 µM | < 10 µM | NC/C(=C/F)COc1ccc(S(=O)(=O)CC23CCC(NC(=O)C4CC4)(CC2)CC3)cc1 |
| > 30 µM | < 10 µM | NC/C(=C\F)COc1ccc(S(=O)(=O)Cn2ccccc2=O)cc1 |
| > 30 µM | > 30 µM | NC/C(=C\F)COc1ccc(S(=O)(=O)CC2(CN3CCCCC3=O)CC2)cc1 |
| > 30 µM | > 30 µM | C[C@@H](CN1CCOCC1)CS(=O)(=O)c1ccc(OC/C(=C/F)CN)cc1 |
| > 30 µM | < 10 µM | NC/C(=C\F)COc1ccc(S(=O)(=O)CC23CC(C(=O)NC4CCC4)(C2)C3)cc1 |
| > 30 µM | < 10 µM | NC/C(=C\F)COc1ccc(S(=O)(=O)CC23CCC(C(=O)NC4CCC4)(CC2)C3)cc1 |
| > 30 µM | < 10 µM | C[C@H](CN1CCC2(CCCC2)C1=O)CS(=O)(=O)c1ccc(OC/C(=C/F)CN)cc1 |

More lines, now with the values behind:

| Compound | IC50 [1] | IC50 [2] |
| --- | --- | --- |
| C[C@@H](CN1CCC2(CCCC2)C1=O)CS(=O)(=O)c1ccc(OC/C(=C/F)CN)cc1 | > 30 µM | < 10 µM |
| NC/C(=C\F)COc1ccc(S(=O)(=O)CC23CCC(C(=O)O)(CC2)CC3)cc1 | > 30 µM | > 30 µM |
| CC(C)N1CCN(CS(=O)(=O)c2ccc(OC/C(=C/F)CN)cc2)C(=O)C1 | > 30 µM | > 30 µM |
| NC/C(=C\F)COc1ccc(S(=O)(=O)CN2CCCC2=O)cc1 | > 30 µM | > 30 µM |
| CC(C)(CN1CCOCC1)CS(=O)(=O)c1ccc(OC/C(=C/F)CN)cc1 | > 30 µM | > 30 µM |
| C[C@H](CN1CCOCC1)CS(=O)(=O)c1ccc(OC/C(=C/F)CN)cc1 | > 30 µM | > 30 µM |
